Experimental data reported in patent US20250230138A1, “COMPOUNDS HAVING A T-STRUCTURE FORMED BY AT LEAST FOUR CYCLES FOR USE IN THE TREATMENT OF CANCER AND OTHER INDICATIONS” (TheRas, Inc., priority 2022, published 2025).
pIC50: −log10 of the molar value. Read-outs that look alike come from different tables or passages of the source.

Legend:
[1] = target: Cys242 in human PIK3CA (157-299) (Homo sapiens (Human), UniProt P42336); experiment: Covalent modification assay using MALDI-TOF MS; format: biochemical; conditions: 4 h reaction time point
Method in brief: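 PIK3CA (157-299) at 3.33 μM or 1 μM in 20 mM HEPES, 150 mM NaCl, 2 mM MgCl2, pH 7.3 was incubated with compound (from 10 mM DMSO stocks) in the dark at room temperature for 15 min, 30 min, 2 h or 4 h. Linear-mode MALDI-TOF peak heights gave percent modification.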

pAKT in BT474 cells = experiment: Cell-based pAKT HTRF assay in BT474 cells; conditions: BT474 cells, 4 hr incubation, read-out: pAKT inhibition IC50 in BT474 cells
Method in brief: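 The HTRF signal (excitation 320 nm, emission 615 nm) came from d2/Eu Cryptate antibodies added to lysates and incubated 4–24 h at room temperature. Those lysates were taken from cells treated for 4 hr with compound, top concentration 3 μM, in 0.25% DMSO.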

[2] = 3.33 μM protein target, 1:7.5 protein to compound ratio (compounds 1-852)
[3] = Homo sapiens, BT-474, Compounds 10-999
[4] = 1 μM protein target, 1:5 protein to compound ratio (compounds 853-1279)

Sequence of Cys242 in human PIK3CA (157-299) (P42336 157-299): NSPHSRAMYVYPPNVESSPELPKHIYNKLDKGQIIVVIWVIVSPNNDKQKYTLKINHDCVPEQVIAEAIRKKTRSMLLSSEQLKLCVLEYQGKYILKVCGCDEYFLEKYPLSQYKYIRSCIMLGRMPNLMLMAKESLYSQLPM

Compound	% of modification [1, 2]	% of modification [1, 4]	pIC50 (pAKT in BT474 cells; Compounds 10-999)	also measured
C=CC(=O)N1CCc2ncc(-c3nc(-c4cnn(C)c4)c(C(F)(F)F)cc3-c3ccc(F)cc3OC(C)C)cc2C1 [Compound 360, 1-[3-[3-(4-fluoro-2-isopropoxy-phenyl)-6-(1-methylpyrazol-4-yl)-5-(trifluoromethyl)-2-pyridyl]-7,8-dihydro-5H-1,6-naphthyridin-6-yl]prop-2-en-1-one]	B (50%<percent of modification <75%)	–	–	pIC50 (pAKT in BT474 cells; [3]): < 5.52
C=CC(=O)N1CCc2ccc(-c3nc(-c4cnc(N5CCN(C)CC5)nc4)c4ccsc4c3-c3c(F)cc(F)cc3OCCOC)cc2C1 [Compound 1106]	–	A (percent of modification of PIK3CA protein ≥75%)	–	pIC50 (pAKT in BT474 cells; Compounds 1000-1279): 6.00 to 7.00
C=CC(=O)N1Cc2cc(-c3nc(-c4ccc5cn(C)nc5c4)c4ccsc4c3-c3c(F)cc(F)cc3OC)nn2C[C@H]1C [Compound 844]	A (percent of modification of PIK3CA protein ≥75%)	–	> 7.00	–
C=CC(=O)N1CCn2nc(-c3nc(-c4ccc(=O)[nH]c4)c4ccsc4c3-c3ccc(F)cc3OC(C)C)cc2C1 [Compound 248]	A (percent of modification of PIK3CA protein ≥75%)	–	> 7.00	–
C=CC(=O)N1CCn2nc(-c3nc(-c4ccc5c(cnn5C)c4)c4ccsc4c3-c3c(F)cc(F)cc3OCCO)cc2[C@@H]1C [Compound 663, 1-((S)-2-((S)-7-(2,4-difluoro-6-(2-hydroxyethoxy)phenyl)-4-(1-methyl-1H-indazol-5-yl)thieno[3,2-c]pyridin-6-yl)-4-methyl-6,7-dihydropyrazolo[1,5-a]pyrazin-5(4H)-yl)prop-2-en-1-one]	A (percent of modification of PIK3CA protein ≥75%)	–	> 7.00	–
C=CC(=O)N1CCn2nc(-c3nc(-c4ccc(C(=O)NC5CN(C)C5)cc4)c4ccsc4c3-c3c(F)cc(F)cc3OCCOC)cc2C1C (stereo not drawn) [Compound 1095]	–	A (percent of modification of PIK3CA protein ≥75%)	–	pIC50 (pAKT in BT474 cells; Compounds 1000-1279): > 7.00
C=CC(=O)N1CCn2nc(-c3nc(-c4cnc5c(c4)CN(C(C)C)CC5)c4ccsc4c3-c3c(F)cc(F)cc3OC)cc2[C@H]1C (single isomer, unassigned) [Compound 1148]	–	A (percent of modification of PIK3CA protein ≥75%)	–	pIC50 (pAKT in BT474 cells; Compounds 1000-1279): > 7.00
C=CC(=O)N1CCc2ncc(-c3nc(-c4ccc5c(cnn5C)c4)c4sccc4c3-c3c(F)cc(F)cc3OCCOC)cc2C1 [Compound 1261, 1-[3-[4-[2,4-difluoro-6-(2-methoxyethoxy)phenyl]-7-(1-methylindazol-5-yl)thieno[2,3-c]pyridin-5-yl]-7,8-dihydro-5H-1,6-naphthyridin-6-yl]prop-2-en-1-one]	–	A (percent of modification of PIK3CA protein ≥75%)	–	pIC50 (pAKT in BT474 cells; Homo sapiens, BT-474, Compounds 1000-1279): > 7.00
C=CC(=O)N1CCc2nc(-c3nc(-c4ccc5c(c4)CCNC5)c4ccsc4c3-c3ccc(F)cc3OCCOC)n(C)c2C1 [Compound 100]	A (percent of modification of PIK3CA protein ≥75%)	–	6.00 to 7.00	–
C=CC(=O)N1CCc2nc(-c3nc(-c4cnc(N)nc4)c4ccsc4c3-c3ccc(F)cc3OCCOC)sc2C1 [Compound 133]	A (percent of modification of PIK3CA protein ≥75%)	–	> 7.00	–
C=CC(=O)N1CCn2nc(-c3nc(-c4ccc5c(c4)CNC(=O)C5(C)C)c4ccsc4c3-c3c(F)cc(F)cc3OCCOC)cc2C1C (stereo not drawn) [Compound 1079]	–	A (percent of modification of PIK3CA protein ≥75%)	–	pIC50 (pAKT in BT474 cells; Compounds 1000-1279): > 7.00
C=CC(=O)N1CCc2nc(-c3nc(-c4ccc5c(c4)CCC5N)c4ccsc4c3-c3ccc(F)cc3OCCOC)sc2C1 (stereo not drawn) [Compound 160]	A (percent of modification of PIK3CA protein ≥75%)	–	> 7.00	–
C=CC(=O)N1CCn2nc(-c3nc(-c4ccc5cn(C)nc5c4)c4ccsc4c3-c3c(F)cc(F)cc3OCCO)cc2[C@@H]1C [Compound 780]	A (percent of modification of PIK3CA protein ≥75%)	–	> 7.00	–
C=CC(=O)N1CCn2nc(-c3nc(-c4ccc5c(c4)CN(C)C(=O)C5)c4ccsc4c3-c3c(F)cc(F)cc3OCCO)cc2[C@H]1C [Compound 973]	–	A (percent of modification of PIK3CA protein ≥75%)	> 7.00	–
C=CC(=O)N1CCc2nc(-c3nc(-c4ccc5c(c4)CCNC5)c4ccsc4c3-c3ccc(F)cc3OC(F)F)sc2C1 [Compound 215]	A (percent of modification of PIK3CA protein ≥75%)	–	6.00 to 7.00	–
C=CC(=O)N1CCn2nc(-c3nc(-c4cc5c(cc4OC)C(=O)NC5)c4ccsc4c3-c3c(F)cc(F)cc3OCCOC)cc2[C@H]1C [Compound 1063]	–	A (percent of modification of PIK3CA protein ≥75%)	–	pIC50 (pAKT in BT474 cells; Compounds 1000-1279): > 7.00
C=CC(=O)N1CCn2nc(-c3nc(-c4cnc5c(c4)CN(C)CC54CC4)c4ccsc4c3-c3c(F)cc(F)cc3OCCOC)cc2[C@H]1C [Compound 1163]	–	A (percent of modification of PIK3CA protein ≥75%)	–	pIC50 (pAKT in BT474 cells; Compounds 1000-1279): > 7.00

Compound	% of modification [1, 2]	% of modification [1, 4]	pIC50 (pAKT in BT474 cells; Compounds 10-999)	also measured
C=CC(=O)N1Cc2cc(-c3nc(-c4ccc5c(c4)CN(C)C5=O)c4ccsc4c3-c3c(F)cc(F)cc3OC)nn2C(C)C1 (stereo not drawn) [Compound 946]	–	A (percent of modification of PIK3CA protein ≥75%)	> 7.00	–
C=CC(=O)N1CCn2nc(-c3nc(-c4ccc5c(c4)c(F)nn5C)c4ccsc4c3-c3c(F)cc(F)cc3OCCOC)cc2[C@H]1C [Compound 1165]	–	A (percent of modification of PIK3CA protein ≥75%)	–	pIC50 (pAKT in BT474 cells; Compounds 1000-1279): > 7.00
C=CC(=O)N1CCn2nc(-c3nc(-c4ccc5c(cnn5C)c4)c4ccsc4c3-c3c(F)cc(F)cc3OCC(C)(C)O)cc2C1C (stereo not drawn) [Compound 1125]	–	A (percent of modification of PIK3CA protein ≥75%)	–	pIC50 (pAKT in BT474 cells; Compounds 1000-1279): 6.00 to 7.00
C=CC(=O)N1CC[C@H](n2cc(-c3nc(-c4ccc5c(c4)CCC(O)C5)c4ccsc4c3-c3ccc(F)cc3OCCOC)cn2)C1 (stereo partly drawn) [Compound 64]	A (percent of modification of PIK3CA protein ≥75%)	–	> 7.00	–
C=CC(=O)N1CCc2ncc(-c3nc(-c4ccc5c(c4)CNC5=O)c4ccsc4c3-c3c(F)cc(F)cc3OCCOC)cc2C1 [Compound 379]	A (percent of modification of PIK3CA protein ≥75%)	–	> 7.00	–
C=CC(=O)N1Cc2cc(-c3nc(-c4cnccn4)c4ccsc4c3-c3c(F)cc(F)cc3OCCOC)nn2C[C@H]1C [Compound 840]	A (percent of modification of PIK3CA protein ≥75%)	–	> 7.00	–
C=CC(=O)N1CCc2ncc(-c3nc(-c4cnc(C)s4)c4ccsc4c3-c3c(F)cc(F)cc3OC(C)C)cc2C1 [Compound 392]	A (percent of modification of PIK3CA protein ≥75%)	–	> 7.00	–
C=CC(=O)N1Cc2cc(-c3nc(-c4cnc5cn(C)nc5c4)c4ccsc4c3-c3c(F)cc(F)cc3OCCOC)nn2C[C@H]1C [Compound 818]	A (percent of modification of PIK3CA protein ≥75%)	–	> 7.00	–
C=CC(=O)N1CCc2nc(-c3nc(-c4ccn(C(F)F)c(=O)c4)c4ccsc4c3-c3c(F)cc(F)cc3OC(C)C)sc2C1 [Compound 362]	A (percent of modification of PIK3CA protein ≥75%)	–	6.00 to 7.00	–
C=CC(=O)N1CC(n2cc(-c3nc(N4CC5(CCNCC5)C4)c4ccsc4c3-c3ccc(F)cc3OCCOC)cn2)C1 [Compound 138]	A (percent of modification of PIK3CA protein ≥75%)	–	6.00 to 7.00	–
C=CC(=O)N1CCn2nc(-c3nc(-c4ccc5c(c4)CNC5=O)c4ccsc4c3-c3c(F)cc(F)cc3OCCOC)cc2[C@@H]1C [Compound 545]	A (percent of modification of PIK3CA protein ≥75%)	–	> 7.00	–
C=CC(=O)N1CCn2nc(-c3nc(-c4ccc5c(c4)CCNC5)c4ccsc4c3-c3ccc(F)cc3OCCOC)cc2C1 [Compound 115, 1-[2-[7-[4-fluoro-2-(2-methoxyethoxy)phenyl]-4-(1,2,3,4-tetrahydroisoquinolin-6-yl)thieno[3,2-c]pyridin-6-yl]-6,7-dihydro-4H-pyrazolo[1,5-a]pyrazin-5-yl]prop-2-en-1-one]	A (percent of modification of PIK3CA protein ≥75%)	–	–	pIC50 (pAKT in BT474 cells; [3]): > 7.00
C=CC(=O)N1CCc2nc(-c3nc(-c4ccc(=O)n(C)c4)c4ccsc4c3-c3ccc(F)cc3OCCOC)sc2C1 [Compound 164]	A (percent of modification of PIK3CA protein ≥75%)	–	> 7.00	–
C=CC(=O)N1CCc2nc(-c3nc(-c4cnn(C)c4)c4ccsc4c3-c3c(F)cc(Cl)cc3OCCOC)sc2C1 [Compound 464]	A (percent of modification of PIK3CA protein ≥75%)	–	6.00 to 7.00	–
C=CC(=O)N1CC(n2cc(-c3nc(-c4ccc5c(c4)CCNC5)c4ncsc4c3-c3ccc(F)cc3OC)cn2)C1 [Compound 104, 1-[3-[4-[7-(4-fluoro-2-methoxy-phenyl)-4-(1,2,3,4-tetrahydroisoquinolin-6-yl)thiazolo[4,5-c]pyridin-6-yl]pyrazol-1-yl]azetidin-1-yl]prop-2-en-1-one]	A (percent of modification of PIK3CA protein ≥75%)	–	–	pIC50 (pAKT in BT474 cells; [3]): 6.00 to 7.00
C=CC(=O)N1CCc2nc(-c3nc(-c4cnc5c(c4)CNC(=O)C5)c4ccsc4c3-c3c(F)cc(F)cc3OCCOC)sc2C1 [Compound 446]	A (percent of modification of PIK3CA protein ≥75%)	–	> 7.00	–
